Measurements: US6583154B1, “Compounds and methods which modulate feeding behavior and related diseases” (Amgen Inc., priority 1998, dated 2003)

Columns and labels:
Long-Evans male rats [1] = experiment: Icv administration of compounds in food-deprived Long-Evans male rats, food intake; type: in vivo; conditions: Long-Evans male rats food deprived for 16 hours; I.C.V. injection in DMSO, 20 μl; 4 hours post-injection; vehicle 8.69 ± 0.53; * significantly different from vehicle, p < 0.05
Protocol: Protocol for Icv Administration of Compounds in Food-Deprived Long-Evans Male Rats
(§1) Adult male Long-Evans rats (approx. 275 g) were obtained from Charles River Laboratories (Wilmington, MA) and given one week to acclimate to the animal facility. Animals were housed individually and given ad-lib access to food and water. After acclimation, animals were anesthetized (75 mg/kg Sodium Nembutal) and implanted with 23 g cannulas (Plastics One, Roanoke, VA) into the right lateral cerebral ventricle. All animals were given at least 1 week post-operative recover before any experiment.
Animals were food deprived for 16 hours prior to injections. Intracerebroventricular injection of compounds was done in awake, unrestrained animals in a DMSO vehicle in a volume of 20 μl. Immediately following the injection, the animals were returned to their home cage and were provided with a pre-weighed portion of regular rat chow pellets. Total food consumed was measured at 2 and 4 hours post-injection.

pNPY induced feeding = experiment: Icv administration of NPY antagonists against pNPY induced feeding in satiated Long-Evans male rats; type: in vivo; conditions: I.C.V. antagonist in DMSO 20 μl, about 15 min later 5 μl pNPY, high sucrose mash, 4 hours post-injection, vehicle 5.29 ± 0.97, * significantly different from vehicle, p < 0.05
Protocol: Protocol for Icv Administration of NPY Antagonists Against pNPY Induced Feeding in Satiated Long-Evans Male Rats
as §1
Approximately 16 hours prior to injection, animals were provided with access to 30 grams of a sucrose/condensed milk/rat chow mash along with their regular chow. Ninety minutes prior to injections, regular chow was removed from the cages and animals were provided with a fresh portion of the high sucrose mash. Intracerebroventricular injection of antagonist or vehicle was done in awake, unrestrained animals in a DMSO vehicle in a volume of 20 μl. Approximately 15 minutes after the administration of the antagonist or vehicle, animals were given a second 5 μl injection of either water or pNPY. After the second injection, the portion of high sucrose mash was weighed and total food consumed was measured at 2 and 4 hours post-injection.

OB/OB female mice = experiment: Icv administration of compounds in ad-lib fed OB/OB female mice, food intake; type: in vivo; conditions: I.C.V. injection in 100% DMSO, 5 μl, 4 hours post-injection, vehicle 0.61 ± 0.10, * significantly different from vehicle, p < 0.05
Text: Protocol For Icv Administration of Compounds In Ad-Lib Fed OB/OB Female Mice.
Eight week old (approx. 50 g) OB/OB female mice were obtained from Jackson Laboratories (Bar Harbor, ME) and given one week to acclimate to the animal facility before the experiment. Animals were housed 10 per cage and were provided with food and water ad-lib. Immediately prior to injection, animals were removed from group housing and lightly anesthetized using 4% isofluorane vapor. Freehand intracerebroventricular (“icv”) injection of compounds was done in a 100% DMSO vehicle in a volume of 5 μl. Immediately following the injection, animals were placed in individual cages and were provided with a pre-weighed portion of regular chow pellets. Total amount of food consumed was measured at 1, 2, 4 and 24 hours post-injection.

Male BALB-C mice = experiment: IP administration of compounds in fasted male BALB-C mice, 2 hr food intake; type: in vivo; conditions: Mus musculus; male BALB-C mice fasted 18-20 hr; 30 mg/kg (ip) in 2% tween; food given after 30 min, weighed 2 hr later; vs vehicle; read-out: inhibition of feeding (2 hr food intake)
Text: Protocol For IP Administration Of Compounds In Male BALB-C Mice.
Male BALB-C mice (20-25 g)were obtained from Charles Rivers (Wilmington, Mass.) and were given at least a one week acclimation period to Amgen's animal care facilities. Animals were housed 10/cage and were provided ad libitum food and water. For testing, mice were fasted for 18-20 hr (overnight) prior to the start of the experiment. On the day of the experiment, mice were removed from group housing and placed into individual cages (without food). Test compounds or vehicle was then administered via the intraperitoneal (i.p.) route of administration. Test compounds were suspended in a 2% tween solution; the 2% tween solution was used as the vehicle treatment (control group). Group sizes for each treatment were 6-8 animals. After 30 min, premeasured food was placed into the cages. Two hours later, the food was weighed again. The difference between 2 hr weight and the premeasured weight was taken as 2 hr food intake.

Long-Evans male rats [2] = experiment: IP administration of compounds in fasted Long-Evans male rats, 2 hr food intake; type: in vivo; conditions: Rattus norvegicus; male Long Evans rats fasted 18-20 hr; 30 mg/kg (ip) in 2% tween; food given after 30 min, weighed 2 hr later; vs vehicle; read-out: inhibition of feeding (2 hr food intake)

Row | melting point | Compound | 4 hr food intake (g ± S.E.M.) (Long-Evans male rats [1]) | 4 hr food intake (g ± S.E.M.) (pNPY induced feeding) | 4 hr food intake (g ± S.E.M.) (OB/OB female mice) | inhibition in vivo at 30 mg/kg (Male BALB-C mice) [%] | inhibition in vivo at 30 mg/kg (Long-Evans male rats [2]) [%]
1 | 184 to 185 °C | CCN(CC)c1nc(C)nc2cc(-c3ccccc3)[nH]c12 [Example 1f, Diethyl(2-methyl-6-phenylpyrrolo[2,3-e]pyrimidin-4-yl)amine] | 5.13 ± 1.40* g | – | – | – | –
2 | 251 to 253 °C (dec.) | Cc1nc(N2CCc3ccccc3C2)c2[nH]c(-c3ccccc3)cc2n1 [Example 2] | – | 3.35 ± 0.62* g | – | – | –
3 | – | Cc1nc(N2CCCCC2)c2[nH]c(-c3ccccc3)cc2n1 [Example 35, 2-methyl-6-phenyl-4-(piperidinyl)pyrrolo[3,2-d]pyrimidine] | – | – | 0.29 ± 0.11* g | ≥ 10 | ≥ 10
